The assay has as its system PMA-differentiated THP-1 cells. In words: IL-1β production in PMA-differentiated THP-1 cells stimulated with gramicidin (hTHP-1 assay containing 2% fetal bovine serum; Procedures 1 and 2). The class given is cell-based, human. To be noted: 2% fetal bovine serum. In a few lines:
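Human monocytic THP-1 cells, matured overnight with PMA at 20 ng/ml, are seeded in low-serum (2% FBS) RPMI. Test compounds, at final concentrations from 100 down to 0.0017 μM, precede gramicidin (5 μM, 2 h) by one hour. Released IL-1β is then determined by HTRF.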

Where [1] appears, read: Homo sapiens, THP-1, Table B2, class symbols, read-out: hTHP-1 IC50.
The mark [2] stands for this setting: Homo sapiens, THP-1, Table B3, hTHP-1 assay, class symbols, read-out: IC50.
Setting [3] is: Table B1, class symbols, read-out: Average IC50 of compounds in hTHP-1 assay: hTHP-1 IC50.
[4] abbreviates: Table B4, class symbols, read-out: hTHP-1 IC50.
Setting [5] is: Table B2, class symbols, read-out: hTHP-1 IC50.

Where two headings read alike, the source gives them in different places. A value given as a limit tells only on which side of the number the result lay.

Consider `CC(C)(O)c1sc(S(N)(=O)=NC(=O)Nc2c3c(nc4c2CCC4(C)C)CCC3)nc1CO` (stereo not drawn) [Compound 642, N′-((3,3-dimethyl-1,2,3,5,6,7-hexahydrodicyclopenta[b,e]pyridin-8-yl)carbamoyl)-4-(hydroxymethyl)-5-(2-hydroxypropan-2-yl)thiazole-2-sulfonimidamide], for which, under setting [1], the IC50 fell in the range of 0.04 to 0.2 µM.

Consider `CCn1cc(F)c(S(N)(=O)=NC(=O)Nc2c3c(nc(C(F)(F)F)c2-c2ccccc2F)CCC3)n1` (stereo not drawn) [Example 746, 1-Ethyl-4-fluoro-N′-((3-(2-fluorophenyl)-2-(trifluoromethyl)-6,7-dihydro-5H-cyclopenta[b]pyridin-4-yl)carbamoyl)-1H-pyrazole-3-sulfonimidamide], for which the IC50 (Homo sapiens, THP-1, Table B4, class symbols, read-out: hTHP-1 IC50) lay within 0.008 to 0.04 µM.

As to `CN[C@H]1COc2c(S(N)(=O)=NC(=O)Nc3c(C)c(C(F)(F)F)nc4c3CCC4)cnn2C1` (stereo partly drawn) [Example 580, (6R)-N′-((3-methyl-2-(trifluoromethyl)-6,7-dihydro-5H-cyclopenta[b]pyridin-4-yl)carbamoyl)-6-(methylamino)-6,7-dihydro-5H-pyrazolo[5,1-b][1,3]oxazine-3-sulfonimidamide], the IC50 under setting [2] was in the range of 1 to 5 µM.

`CC1(C)CCc2c1nc1c(c2NC(=O)N=S(N)(=O)c2ccn(C(F)F)n2)CCC1` (single isomer, unassigned) [Compound 122a, (R) or (S)-1-(difluoromethyl)-N′-((3,3-dimethyl-1,2,3,5,6,7-hexahydrodicyclo-penta[b,e]pyridin-8-yl)carbamoyl)-1H-pyrazole-3-sulfonimidamide]: the half-inhibitory concentration (IC50) under setting [3] lay within 0.04 to 0.2 µM.

As for `CCn1cc(F)c(S(N)(=O)=NC(=O)Nc2c3c(nc(C(F)(F)F)c2-c2ccc(F)cc2)CCC3)n1` (single isomer, unassigned) [Example 788, (S) or (R)-1-ethyl-4-fluoro-N′-((3-(4-fluorophenyl)-2-(trifluoromethyl)-6,7-dihydro-5H-cyclopenta[b]pyridin-4-yl)carbamoyl)-1H-pyrazole-3-sulfonimidamide], the concentration for half-maximal inhibition (IC50) under setting [4] fell in the range of 1 to 5 µM.

As to `CC1(C)CCc2c1nc1c(c2NC(=O)N=S(N)(=O)c2cnc(C(C)(O)CO)s2)CCC1` (single isomer, unassigned) [Compound 201f, (R, S) and (S, S) or (S, R) and (R, R)-2-(1.2-Dihydroxvpropan-2-yl)-N′-((3,3-dimethyl-1,2,3.5.6.7-hexahydrodicyclopenta [b,e]pvridin-8-yl)carbamoyl)thiazole-5-sulfonimidamide], the IC50 under setting [5] is 5 to 30 µM.

Consider `Cc1c(C(F)(F)F)nc2c(c1NC(=O)N=S(N)(=O)c1cnc(C(C)(O)CO)s1)CCC2` (single isomer, unassigned) [Compound 605e, (R, S) or (S, S)-2-(1,2-Dihydroxypropan-2-yl)-N′-((3-methyl-2-(trifluoromethyl)-6,7-dihydro-5H-cyclopenta[b]pyridin-4-yl)carbamoyl) thiazole-5-sulfonimidamide], for which, under setting [5], the concentration for half-maximal inhibition (IC50) is 5 to 30 µM.

Turning to `NS(=O)(=NC(=O)Nc1c2c(nc3c1CCC31CC1)CCC2)c1ccn(CCO)n1` (single isomer, unassigned) [Example 647, (R) or (S)-1-(2-hydroxyethyl)-N′-((1′,5′,6′,7′-tetrahydro-2′H-spiro[cyclopropane-1,3′-dicyclopenta[b,e]pyridin]-8′-yl)carbamoyl)-1H-pyrazole-3-sulfonimidamide], the IC50 (Table B3, hTHP-1 assay, class symbols, read-out: IC50) is 0.2 to 1 µM.

For `CC(C)(O)c1cnc(S(N)(=O)=NC(=O)Nc2c3c(nc4c2CCC42CC2)CCC3)s1` (single isomer, unassigned) [Compound 683a, (R) or (S)-5-(2-Hydroxypropan-2-yl)-N′-((1′,5′,6′,7′-tetrahydro-2′H-spiro[cyclopropane-1,3′-dicyclopenta[b,e]pyridin]-8′-yl)carbamoyl) thiazole-2-sulfonimidamide], the IC50 under setting [5] was 0.2 to 1 µM.

For the molecule `CC(C)c1c(-c2ccccc2)nc2c(c1NC(=O)N=S(N)(=O)c1cnc(C(C)(C)O)s1)CCC2` (single isomer, unassigned) [Compound 145a, (R) or (S)-2-(2-hydroxy-propan-2-yl)-N′-((3-isopropyl-2-phenyl-6,7-dihydro-5H-cyclopenta[b]pyridin-4-yl)carbamoyl)thiazole-5-sulfonimidamide], the half-inhibitory concentration (IC50) under setting [3] lay in the range of 0.2 to 1 µM.

With `Cc1c(CC2CC2)nc2c(c1NC(=O)N=S(N)(=O)c1cc(C(C)(C)O)cs1)CCC2` (stereo not drawn) [Compound 655, N′-((2-(cyclopropylmethyl)-3-methyl-6,7-dihydro-5H-cyclopenta[b]pyridin-4-yl)carbamoyl)-4-(2-hydroxypropan-2-yl)thiophene-2-sulfonimidamide], the IC50 under setting [1] was in the range of 5 to 30 µM.

As to `CC(C)(O)c1cccc(S(N)(=O)=NC(=O)Nc2c3c(nc4c2CCC4)CCC3)c1` (single isomer, unassigned) [Compound 625a, (S) or (R)-N′-((1,2,3,5,6,7-hexahydrodicyclopenta [b,e]pyridin-8-yl)carbamoyl)-3-(2-hydroxypropan-2-yl)benzene-sulfonimidamide], where the note is “Homo sapiens, THP-1, Table B2, numeric bounds, read-out: hTHP-1 IC50”, the IC50 is more than 30 µM.

On to `CC(C)(O)c1csc(S(N)(=O)=NC(=O)Nc2cc(C(F)(F)F)nc3c2CCC3)c1` (stereo not drawn) [Example 567, 4-(2-Hydroxypropan-2-yl)-N′-((2-(trifluoromethyl)-6,7-dihydro-5H-cyclopenta[b]pyridin-4-yl)carbamoyl)thiophene-2-sulfonimidamide], for which the IC50 under setting [2] was 5 to 30 µM.

`Cc1c(-c2ccccc2)nc2c(c1NC(=O)N=S(N)(=O)c1cnc(C(C)(C)O)s1)CCC2` (single isomer, unassigned) [Compound 143b, (R) or (S)-2-(2-hydroxy-propan-2-yl)-N′-((3-methyl-2-phenyl-6,7-dihydro-5H-cyclopenta[b]pyridin-4-yl)carbamoyl)thiazole-5-sulfonimidamide]: the IC50 (Table B1, numeric bounds, read-out: Average IC50 of compounds in hTHP-1 assay: hTHP-1 IC50) is more than 30 µM.

Consider `Cc1c(C2CC2)nc2c(c1NC(=O)N=S(N)(=O)c1cc(C(C)(C)O)n(-c3ccccc3)n1)CCC2` (stereo not drawn) [Compound 651, N′-((2-cyclopropyl-3-methyl-6,7-dihydro-5H-cyclopenta[b]pyridin-4-yl)carbamoyl)-5-(2-hydroxypropan-2-yl)-1-phenyl-1H-pyrazole-3-sulfonimidamide], for which, under setting [1], the concentration for half-maximal inhibition (IC50) lay in the range of 5 to 30 µM.

For `CC1CCc2c1nc1c(c2NC(=O)N=S(N)(=O)c2sc(C(C)(C)O)nc2CO)CCC1` (single isomer, unassigned) [Compound 168bb, (R,R) or (R,S)-4-(hydroxymethyl)-2-(2-hydroxypropan-2-yl)-N′-((3-methyl-1,2,3,5,6,7-hexahydrodicyclo-penta[b,c]pyridin-8-yl)carbamoyl)thiazole-5-sulfonimidamide], under setting [3], the IC50 is 1 to 5 µM.

Turning to `Cc1c(C(F)(F)F)nc2c(c1NC(=O)N=[S@](N)(=O)c1ccn(C)n1)CCC2` (single isomer, unassigned) [Compound 730a], under setting [1], the IC50 was in the range of 5 to 30 µM.

In the case of `CC1(C)CCc2c1nc1c(c2NC(=O)N=[S@@](N)(=O)c2cc([C@](C)(O)CO)cs2)CCC1` [Example 651, (R)-4-((S)-1,2-dihydroxypropan-2-yl)-N′-((3,3-dimethyl-1,2,3,5,6,7-hexahydrodicyclopenta[b,e]pyridin-8-yl)carbamoyl) thiophene-2-sulfonimidamide], the IC50 under setting [2] fell in the range of 0.04 to 0.2 µM.

Take `CC1(C)CCc2c1nc1c(c2NC(=O)N=S(N)(=O)c2cnn3c2OCCC3)CCC1` (single isomer, unassigned) [Compound 304b, (R) or (S)-N′-((3,3-dimethyl-1,2,3,5,6,7-hexahydrodicyclopenta [b,e]pyridin-8-yl)carbamoyl)-6,7-dihydro-5H-pyrazolo[5,1-b][1,3]oxazine-3-sulfonimidamide]: the half-inhibitory concentration (IC50) under setting [1] lay within 1 to 5 µM.

In the case of `Cc1c(C2CC2)nc2c(c1NC(=O)N=S(N)(=O)c1ccn(C(F)F)n1)CCC2` (stereo not drawn) [Compound 676, N′-((2-cyclopropyl-3-methyl-6,7-dihydro-5H-cyclopenta[b]pyridin-4-yl)carbamoyl)-1-(difluoromethyl)-1H-pyrazole-3-sulfonimidamide], under setting [1], the IC50 is 1 to 5 µM.

In the case of `CCn1cc(F)c(S(N)(=O)=NC(=O)Nc2c3c(nc(C)c2-c2ccccc2)CCC3)n1` (single isomer, unassigned) [Example 769, (R) or (S)-1-ethyl-4-fluoro-N′-((2-methyl-3-phenyl-6,7-dihydro-5H-cyclopenta[b]pyridin-4-yl)carbamoyl)-1H-pyrazole-3-sulfonimidamide], the 50% inhibitory concentration (IC50) under setting [4] was in the range of 5 to 30 µM.

`CC(C)(O)c1sc(S(N)(=O)=NC(=O)Nc2c3c(nc4c2CCC42CC2)CCC3)cc1F` (single isomer, unassigned) [Compound 614a, (R) or (S)-4-Fluoro-5-(2-hydroxypropan-2-yl)-N′-((1′,5′,6′,7′-tetrahydro-2′H-spiro[cyclopropane-1,3′-dicyclopenta[b,e]pyridin]-8′-yl)carbamoyl) thiophene-2-sulfonimidamide]: the IC50 under setting [5] fell in the range of 0.04 to 0.2 µM.

As to `CC(C)(O)c1ccc(S(N)(=O)=NC(=O)Nc2c3c(nc4c2CCC4(C)C)CCC3)cn1` (stereo not drawn) [Compound 673, N′-((3,3-dimethyl-1,2,3,5,6,7-hexahydrodicyclopenta[b,e]pyridin-8-yl)carbamoyl)-6-(2-hydroxypropan-2-yl)pyridine-3-sulfonimidamide], the IC50 under setting [1] was in the range of 5 to 30 µM.

As to `CC1CCc2c1nc1c(c2NC(=O)N=S(N)(=O)c2sc(C(C)(C)O)nc2CO)CCC1` (single isomer, unassigned) [Compound 168ba, (R,S) or (R,R)-4-(hydroxymethyl)-2-(2-hydroxypropan-2-yl)-N′-((3-methyl-1,2,3,5,6,7-hexahydrodicyclo-penta[b,e]pyridin-8-yl)carbamoyl)thiazole-5-sulfonimidamide], the IC50 under setting [3] lay in the range of 0.2 to 1 µM.

The IC50 is the concentration that gives 50% inhibition.
